Measurements from ChEMBL document CHEMBL5226361, “Marine Sponge-Derived Alkaloid Induces Mitochondrial Dysfunction and Inhibits the PI3K/AKT/mTOR Signaling Pathway against Burkitt's Lymphoma” (J Nat Prod, 2023).
The source made the active and inactive calls. The rule behind the calls is not given here.

Columns and labels:
[1] = Inhibition of PI3K/AKT/mTOR signalling pathway in human Raji cells assessed as increase in ratio of mTOR phosphorylation to total mTOR protein level at 5 uM incubated for 12 hrs in the presence of YS49 by Western blot analysis; type: cell-based
Raji [2] = experiment: Induction of mitochondrial dysfunction in human Raji cells assessed as decrease in ATP content incubated for 24 hrs by CellTiter-Lumi […] assay; type: functional, cell-based; conditions: dose 1.25-5 µM
Raji [3] = experiment: Induction of cell cycle arrest at G0/G1 phase in human Raji cells assessed as upregulation of gamma-H2AX protein expression at 1.25 to 5 uM incubated for 24 to 48 hrs by Western blot analysis; type: functional, cell-based; conditions: dose 1.25-5 µM, time 24-48 hrs
Daudi [4] = experiment: Induction of apoptosis in human Daudi cells assessed as viable cells at 3 uM incubated for 24 hrs in the presence of YS49 by Annexin V-FITC/PI staining based flow cytometric analysis (reference value: 97.2%); type: functional; conditions: read-out: Activity
Raji [5] = experiment: Induction of mitochondrial dysfunction in human Raji cells assessed as decrease in ATP-5H protein expression at 2.5 to 5 uM incubated for 48 hrs by Western blot analysis; type: functional, cell-based; conditions: dose 2.5-5 µM
Raji [6] = experiment: Induction of apoptosis in human Raji cells assessed as late apoptotic cells at 5 uM incubated for 24 hrs by Annexin V-FITC/PI staining based flow cytometric analysis (reference value: 0.0%); type: functional
Daudi [7] = experiment: Induction of apoptosis in human Daudi cells assessed as nuclear condensation incubated for 24 hrs by Hoechst 33258/PI staining based fluorescence microscopic analysis; type: functional, cell-based; conditions: dose 0.75-3 µM
Daudi [8] = experiment: Induction of apoptosis in human Daudi cells assessed as upregulation of cleaved caspase-3 expression at 0.75 to 3 uM incubated for 24 hrs by Western blot analysis; type: functional, cell-based; conditions: dose 0.75-3 µM
Daudi [9] = experiment: Induction of cell cycle arrest in human Daudi cells assessed as accumulation of cells at G0/G1 phase at 3 uM incubated for 24 hrs by PI staining based flow cytometry analysis (reference value: 24.28%); type: functional
Daudi [10] = experiment: Induction of mitochondrial respiratory chain damage in human Daudi cells assessed as decrease in CYC1 protein expression at 1.5 to 3 uM incubated for 48 hrs by Western blot analysis; type: functional, cell-based; conditions: dose 1.5-3 µM
Daudi [11] = experiment: Induction of apoptosis in human Daudi cells assessed as downregulation of Bcl-xl expression at 0.75 to 3 uM incubated for 24 hrs by Western blot analysis; type: functional, cell-based; conditions: dose 0.75-3 µM
Daudi [12] = experiment: Induction of apoptosis in human Daudi cells assessed as necrotic cells at 3 uM incubated for 24 hrs by Annexin V-FITC/PI staining based flow cytometric analysis (reference value: 1.0%); type: functional
[13] = Inhibition of PI3K/AKT/mTOR signalling pathway in human Raji cells assessed as increase in ratio of PI3K phosphorylation to total PI3K protein level at 5 uM incubated for 12 hrs in the presence of YS49 by Western blot analysis; type: cell-based
Daudi [14] = experiment: Induction of apoptosis in human Daudi cells assessed as upregulation of cytochrome C expression at 0.75 to 3 uM incubated for 24 hrs by Western blot analysis; type: functional, cell-based; conditions: dose 0.75-3 µM
Daudi [15] = experiment: Induction of apoptosis in human Daudi cells assessed as necrotic cells at 3 uM incubated for 24 hrs in the presence of YS49 by Annexin V-FITC/PI staining based flow cytometric analysis (reference value: 1.0%); type: functional
[16] = Inhibition of PI3K/AKT/mTOR signalling pathway in human Daudi cells assessed as inhibition of PI3K phosphorylation incubated for 24 hrs by Western blot analysis; type: cell-based; conditions: dose 0.75-3 µM
[17] = Inhibition of PI3K/AKT/mTOR signalling pathway in human Daudi cells assessed as inhibition of mTOR phosphorylation incubated for 24 hrs by Western blot analysis; type: cell-based; conditions: dose 0.75-3 µM
[18] = Inhibition of PI3K/AKT/mTOR signalling pathway in human Daudi cells assessed as increase in ratio of PI3K phosphorylation to total PI3K protein level at 3 uM incubated for 12 hrs in the presence of YS49 by Western blot analysis; type: cell-based
[19] = Inhibition of PI3K/AKT/mTOR signalling pathway in human Raji cells assessed as inhibition of AKT phosphorylation at […] residue incubated for 24 hrs by Western blot analysis; type: cell-based; conditions: dose 1.25-5 µM
Raji [20] = experiment: Effect on total PI3K protein level in human Raji cells at 1.25 to 5 uM incubated for 24 hrs by Western blot analysis; type: functional, cell-based; conditions: dose 1.25-5 µM
Raji [21] = experiment: Induction of apoptosis in human Raji cells assessed as necrotic cells at 5 uM incubated for 24 hrs by Annexin V-FITC/PI staining based flow cytometric analysis (reference value: 1.5%); type: functional

With COc1c(OC)c2c3c(nccc3c1-c1cc(C)cc(C)c1)C(c1cc(C)cc(C)c1)=CN2 the inhibition [1] was “inactive”, the Activity (Raji [2]) was “Dose-Dependent Effect” and the Activity (Raji [3]) was “Active”. For the same compound, the viability at 3 µM (Daudi [4]) was 80.2%, the Activity (Raji [5]) was “Active” and the Activity (Raji [6]) was 4.2%. The Activity (Daudi [7]) was “Dose-Dependent Effect”, the Activity (Daudi [8]) was “Active” and the Activity (Daudi [9]) was 49.7%. For the same compound, the Activity (Daudi [10]) was “Active”, the Activity (Daudi [11]) was “Active” and the Activity (Daudi [12]) was 2.2%. The inhibition [13] was “inactive”, the Activity (Daudi [14]) was “Active” and the Activity (Daudi [15]) was 1.7%. The inhibition [16] was “Dose-Dependent Effect”, the inhibition [17] was “Dose-Dependent Effect” and the inhibition [18] was “inactive”. For the same compound, the inhibition [19] was “Dose-Dependent Effect”, the Activity (Raji [20]) was “inactive” and the Activity (Raji [21]) was 17%.
